Measurements from paper PMC3917258, “6-Bromoisatin Found in Muricid Mollusc Extracts Inhibits Colon Cancer Cell Proliferation and Induces Apoptosis, Preventing Early Stage Tumor Formation in a Colorectal Cancer Rodent Model” (Marine Drugs, 2013).

Key:
[1] = system: lymphoma (U937) cell line; set-up: method as in PMID 17088067; conditions: cited from earlier work
ERK-2 = system: ERK-2; set-up: method as in PMID 11006132; conditions: 100 µM, compared to the control; cited from earlier work
[2] = system: human neuroblastoma SH-SY5Y cells; set-up: method as in PMID 15876476; conditions: 50 µM; cited from earlier work
[3] = system: human promyelocytic leukemia (HL60) cancer cells; set-up: method as in PMID 11006132; conditions: 100 µM; cited from earlier work
[4] = system: caspase 3/7 activity in HT29 cells; assay: Caspase-Glo 3/7 assay; format: cell-based, human; conditions: positive control, 5 µM, 12 h
Protocol: All media and chemicals were purchased from Sigma Aldrich (Castle Hill, NSW, Australia) unless otherwise stated. HT29 human colorectal cancer cell line (passage no. 36-42) were cultured (37 °C and 5% CO2) in Dulbecco’s Modified Eagle’s Medium (DMEM) supplemented with 4500 mg/L L-glutamine, 10% FBS, 100 U/mL Penicillin/Streptomycin and 1% Non-essential Amino Acid (100×), until the cells reached 70% confluence. The cells were harvested from flasks by trypsinization (1× Trypsin-EDTA) and were seeded (20,000 cells/well) into clear 96-well plates (Costar®, Mt Martha, VIC, Australia) for measurement of cell viability and white (opaque) 96-well plates (Interpath, Heidelberg West, VIC, Australia) for determination of apoptosis and necrosis. HT29 cells were incubated for 48 h, then the media was removed and the cells were washed with PBS. To treat the cells, synthetic 6-bromoisatin was dissolved in 100% dimethylsulphoxide (DMSO) then diluted in media and added to the cells at a range of concentrations from 0.1 to 0.01 mg/mL, in triplicate (final DMSO concentration of 1%). 1% DMSO controls were also included on each plate. Staurosporine (5 µM) for apoptosis and lysis solution (5 μL/well, Promega, Alexandria, NSW, Australia) for necrosis were added to the white plates in triplicate, as positive controls. All cells were treated for 12 h. Morphological changes in the cells were observed on an Olympus CK2 inverted optical microscope (×400 magnification) 12 h after treatment. To measure cell viability, the MTT assay was applied, which measures the reduction of MTT tetrazolium salt to formazan, as previously described. To measure necrosis and apoptosis, CytoTox-ONE Homogeneous Membrane Integrity Assay reagent (Promega) and Caspase-Glo 3/7® assay (Promega) were applied respectively, according to our previous study. These assays were all repeated in triplicate on three separate occasions (n = 3).

**Q.** For O=C1Nc2ccc(Br)cc2C1=O [5-bromo-], which “activity for killing cancer cells relative to unsubstituted isatin” value [1] is on record?
**A.** 5–10 times

**Q.** With O=C1Nc2ccc(F)cc2C1=O [5-fluoroisatin] as the compound, how does the “activity for killing cancer cells relative to unsubstituted isatin” value [1] read?
**A.** 5–10 times

**Q.** Which “activity for killing cancer cells relative to unsubstituted isatin” value [1] does the source give for O=C1Nc2ccc(I)cc2C1=O [5-iodo-] here?
**A.** 5–10 times

**Q.** What does the source list for O=C1Nc2ccccc2C1=O [isatin, 1H-indole-2,3-dione]?
**A.** inhibition of phosphorylation of ERK-2 (ERK-2): 35%; apoptosis [2]: apoptosis was observed; reduction of cell proliferation [3]: 80%

**Q.** For CN[C@@H]1C[C@H]2O[C@@](C)([C@@H]1OC)n1c3ccccc3c3c4c(c5c6ccccc6n2c5c31)C(=O)NC4 [staurosporine, reference compound], which “caspase 3/7 activity” value [4] is on record?
**A.** significant increase
